Measured values published in publication PMC10104807, “Modulation of tau tubulin kinases (TTBK1 and TTBK2) impacts ciliogenesis” (Scientific Reports, 2023).

Experiments:
Test in all cases: DiscoverX scanMAX binding assay
Settings in all cases: 1 μM
PIP5K1C = molecular target: T1, PIP5K1C (Homo sapiens, UniProt O60331)
T1 construct: purchased Eurofins (radiometric) / Eurofins DiscoverX scanMAX / Reaction Biology / SignalChem
Source text: (§1) This panel includes 403 wild-type (WT) human kinases but not TTBK1/2. […] Substantial overlap between the MRC and DiscoverX scanMAX kinase panels allows the comparison of results for the same kinases in two different assay formats (enzymatic versus binding, respectively) at the same concentration. Selectivity results are included in two columns within Table 1. […] The rightmost column converts this selectivity score into the number of kinases with a PoC < 10 in the scanMAX panel.
(§2) The Eurofins DiscoverX Corporation scanMAX assay platform was employed to assess the selectivity of specific analogs at a single concentration (1 µM). As described previously, this assay platform profiles a compound against 403 wild-type human kinases and delivers percent of control (PoC) values. These percent of control values are included in Table 1 and corresponding kinome tree diagrams as well as tables for each analog included in Fig. S1.

TAOK1 = molecular target: T2, TAOK1 (Homo sapiens, UniProt Q7L7X3)
T2 construct: purchased Eurofins
T2 sequence (Q7L7X3 1-1001): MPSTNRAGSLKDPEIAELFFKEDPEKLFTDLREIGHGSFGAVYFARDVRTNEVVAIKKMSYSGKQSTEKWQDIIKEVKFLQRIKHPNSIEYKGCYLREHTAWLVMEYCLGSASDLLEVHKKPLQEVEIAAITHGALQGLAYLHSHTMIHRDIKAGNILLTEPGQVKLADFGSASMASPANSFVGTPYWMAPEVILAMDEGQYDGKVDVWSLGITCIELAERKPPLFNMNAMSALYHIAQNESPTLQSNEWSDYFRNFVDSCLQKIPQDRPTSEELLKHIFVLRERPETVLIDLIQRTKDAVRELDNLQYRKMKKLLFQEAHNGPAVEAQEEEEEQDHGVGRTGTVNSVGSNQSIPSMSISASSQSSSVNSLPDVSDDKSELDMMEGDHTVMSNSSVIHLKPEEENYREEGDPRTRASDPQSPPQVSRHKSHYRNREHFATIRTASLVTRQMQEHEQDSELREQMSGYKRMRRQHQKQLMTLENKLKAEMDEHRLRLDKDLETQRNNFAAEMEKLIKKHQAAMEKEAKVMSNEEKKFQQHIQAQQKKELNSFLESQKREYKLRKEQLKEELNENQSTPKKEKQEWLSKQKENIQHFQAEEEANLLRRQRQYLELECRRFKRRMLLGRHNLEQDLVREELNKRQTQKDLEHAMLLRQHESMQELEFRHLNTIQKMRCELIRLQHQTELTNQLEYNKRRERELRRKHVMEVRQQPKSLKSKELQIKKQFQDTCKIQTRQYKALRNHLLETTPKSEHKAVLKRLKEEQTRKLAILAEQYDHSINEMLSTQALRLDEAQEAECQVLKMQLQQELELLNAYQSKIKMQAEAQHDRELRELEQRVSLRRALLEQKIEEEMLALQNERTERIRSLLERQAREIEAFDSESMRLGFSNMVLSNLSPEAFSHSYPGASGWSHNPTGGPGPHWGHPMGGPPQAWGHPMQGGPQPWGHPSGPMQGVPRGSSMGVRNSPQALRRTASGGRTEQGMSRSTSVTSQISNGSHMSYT
Source text: as §1, §2

TAOK2 = molecular target: T3, TAOK2 (Homo sapiens, UniProt Q9UL54)
T3 construct: purchased Eurofins
T3 sequence (Q9UL54 1-1235): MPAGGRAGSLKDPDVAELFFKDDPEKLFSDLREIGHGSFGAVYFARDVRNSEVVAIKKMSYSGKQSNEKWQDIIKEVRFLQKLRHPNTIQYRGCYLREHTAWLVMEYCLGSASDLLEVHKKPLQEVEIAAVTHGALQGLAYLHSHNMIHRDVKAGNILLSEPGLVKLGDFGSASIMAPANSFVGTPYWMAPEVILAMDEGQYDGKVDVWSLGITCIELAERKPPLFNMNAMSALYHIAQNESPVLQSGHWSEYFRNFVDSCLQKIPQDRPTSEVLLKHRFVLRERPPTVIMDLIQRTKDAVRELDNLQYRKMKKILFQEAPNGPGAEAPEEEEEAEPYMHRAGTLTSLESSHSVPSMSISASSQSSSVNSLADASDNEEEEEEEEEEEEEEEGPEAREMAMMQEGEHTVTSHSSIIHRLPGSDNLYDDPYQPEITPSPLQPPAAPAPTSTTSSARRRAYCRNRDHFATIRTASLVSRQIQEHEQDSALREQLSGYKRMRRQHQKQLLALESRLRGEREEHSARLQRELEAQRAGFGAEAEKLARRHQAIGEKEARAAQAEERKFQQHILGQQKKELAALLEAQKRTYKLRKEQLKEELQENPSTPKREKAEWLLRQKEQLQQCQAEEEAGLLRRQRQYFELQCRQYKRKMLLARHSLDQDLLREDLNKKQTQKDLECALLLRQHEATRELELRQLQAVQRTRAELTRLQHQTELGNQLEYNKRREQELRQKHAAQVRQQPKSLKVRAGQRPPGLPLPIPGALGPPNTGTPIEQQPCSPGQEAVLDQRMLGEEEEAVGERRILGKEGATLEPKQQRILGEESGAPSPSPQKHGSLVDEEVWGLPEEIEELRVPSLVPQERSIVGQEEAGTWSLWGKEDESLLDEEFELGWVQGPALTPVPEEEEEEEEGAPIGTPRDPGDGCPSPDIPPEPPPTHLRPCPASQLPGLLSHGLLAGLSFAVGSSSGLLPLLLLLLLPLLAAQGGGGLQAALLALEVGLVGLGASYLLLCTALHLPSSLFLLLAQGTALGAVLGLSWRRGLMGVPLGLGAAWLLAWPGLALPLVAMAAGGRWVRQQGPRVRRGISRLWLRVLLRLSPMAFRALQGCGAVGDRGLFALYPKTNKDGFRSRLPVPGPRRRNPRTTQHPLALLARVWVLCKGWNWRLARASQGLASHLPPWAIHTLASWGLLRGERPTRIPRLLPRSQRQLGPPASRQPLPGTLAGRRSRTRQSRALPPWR
Source text: as §1, §2

T1 sequence (O60331 whole entry): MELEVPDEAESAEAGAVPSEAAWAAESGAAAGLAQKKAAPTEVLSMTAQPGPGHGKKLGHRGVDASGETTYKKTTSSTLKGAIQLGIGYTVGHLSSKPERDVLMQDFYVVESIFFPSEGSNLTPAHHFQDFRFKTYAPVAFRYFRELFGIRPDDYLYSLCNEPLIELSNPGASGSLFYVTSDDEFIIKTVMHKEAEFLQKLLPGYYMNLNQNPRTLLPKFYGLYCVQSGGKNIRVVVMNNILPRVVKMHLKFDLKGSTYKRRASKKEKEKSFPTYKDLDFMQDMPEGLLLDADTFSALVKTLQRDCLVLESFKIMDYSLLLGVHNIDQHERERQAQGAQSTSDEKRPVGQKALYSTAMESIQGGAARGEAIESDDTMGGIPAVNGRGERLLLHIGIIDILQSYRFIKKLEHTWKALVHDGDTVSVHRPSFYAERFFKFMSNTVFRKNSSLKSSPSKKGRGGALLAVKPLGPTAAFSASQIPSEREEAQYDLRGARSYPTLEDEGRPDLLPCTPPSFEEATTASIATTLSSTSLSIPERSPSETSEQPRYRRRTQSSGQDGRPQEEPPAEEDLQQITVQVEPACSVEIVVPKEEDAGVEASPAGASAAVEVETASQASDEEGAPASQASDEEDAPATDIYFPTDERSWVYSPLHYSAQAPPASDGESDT

Row | Structure (SMILES) | PIP5K1C % control at 1000nM / DiscoverX PoC value (PIP5K1C) | TAOK1 % control at 1000nM / DiscoverX PoC value (TAOK1) | TAOK2 % control at 1000nM / DiscoverX PoC value (TAOK2)
1 | CC(C)(O)C#Cc1ccc2[nH]c3c(c2c1)-c1nc(N)ncc1CCC3 [AMG28, reference compound] | 3.1 % control | 3.2 % control | 3.5 % control
2 | CC(C)(O)C#Cc1ccc2[nH]c3c(c2c1)-c1nc(N)ncc1CC3 [Compound 1] | 0.5 % control | 1.2 % control | 1.5 % control
3 | CC(C)(O)C#Cc1ccc2[nH]cc(-c3ccnc(N)n3)c2c1 [Compound 3] | 0.4 % control | 2.1 % control | 1.3 % control
